Values quoted from earlier work in patent US20230321590A1, “AQUEOUS LIQUID SORBENT” (COMPACT CARBON CAPTURE AS, priority 2020, published 2023).

Conditions: literature values

Which “Reaction rate constant at 25° C.” value does the source give for `CC(C)(N)CO` [2-amino-2-methyl-1-propanol (AMP), 2-amino-2-methyl-1-propanol] here?
The value was 810 m^3kmol^−1s^−1.

For `CC(O)CNCC(C)O` (stereo not drawn) [Diisopropanolamine (DIPA), Diisopropanolamine], which “Reaction rate constant at 25° C.” value is on record?
The value was 2585 m^3kmol^−1s^−1.

For `OCCNCCO` [Diethanolamine (DEA), Diethanolamine], which “Reaction rate constant at 25° C.” value is on record?
Its value is 2375 m^3kmol^−1s^−1.

Which “Reaction rate constant at 25° C.” value does the source give for `NCCO` [Monoethanolamine (MEA), Monoethanolamine] here?
The value was 7000 m^3kmol^−1s^−1.

For `C1CNCCN1` [Piperazine], which “Reaction rate constant at 25° C.” value is on record?
Its value is 53700 m^3kmol^−1s^−1.

Which “Reaction rate constant at 25° C.” value does the source give for `NCCOCCO` [Diglycolamine (DGA), Diglycolamine] here?
Its value is 6663 m^3kmol^−1s^−1.
